The term CC50 denotes the concentration that lowers cell viability or growth by half. By EC50 is commonly meant the concentration giving half of the maximal effect. Low readings indicate a more potent agent, high ones a less potent agent. A word on the solubility (kinetic): it is solubility judged after dilution from a stock solution rather than from solid.

The nature of series [1]: Cytotoxicity assay in MT-4 cells. The note with it: human, uninfected MT-4 cells, average of at least two independent experiments, read-out: MT4 CC50. The format is cell-based. The method, then:
Compounds were tested in a high-throughput 384-well assay format for their ability to inhibit the replication of HIV-1 (IIIB) in MT-4 cells. Compounds were serially diluted (1:3) in DMSO on 384-well polypropylene plates and further diluted 200-fold into complete RPMI media (10% FBS, 1% P/S) using the Biotek Micro Flow and Labcyte ECHO acoustic dispenser. Each plate contained up to 8 test compounds, with negative (no drug) and positive (5 μM AZT) controls. MT-4 cells were pre-treated with 10 μL of either RPMI (mock-infected) or a fresh 1:250 dilution of HIV-1 IIIB concentrated virus stock. Infected and uninfected MT-4 cells were further diluted in complete RPMI media and added to each plate using a Micro Flow dispenser. After 5 days incubation in a humidified and temperature-controlled incubator (37° C.), Cell Titer Glo (Promega) was added to the assay plates and chemiluminescence read using an Envision plate-reader. EC50 values were defined as the compound concentration that causes a 50% decrease in luminescence signal and were calculated using a sigmoidal dose-response model to generate curve fits and are shown in Table 1.
Example 105: Cytotoxicity Assay in MT-4 Cells
Assays were performed as described in Example 104 except uninfected MT-4 cells were added to each well containing test compound. In addition, 10 μM puromycin was added to the last column of each assay plate to assess a base level of cytotoxicity.

A further series relates to HBV. The series can be described thus: Antiviral (HBV) assay in primary human hepatocytes (PHHs). The format is cell-based. Conditions: Hepatitis B virus, Hepatocyte, 120 h; HBV (GTD) infected PHH, 5 days, HBV DNA in supernatant; average of at least two independent experiments. The method, then: Example 106: Antiviral (HBV) Assay in Primary Human Hepatocytes (PHHs)
Cryopreserved PHH were thawed, recovered by centrifugation at 100 g in cryopreserved hepatocyte recovery medium (Thermo Fisher Scientific; CM7500), and plated on collagen matrix (Life Technologies; Catalog Number: R-011-K) coated T225 flasks (Corning CellBIND, Catalog Number: 3293) at a density of 25E6 live cells in 60 mls media. Cells were plated in William's E medium (Thermo Fisher Scientific; A1217601) supplemented with 3.6% hepatocyte thawing and plating supplement (Thermo Fisher Scientific, A15563), 5% fetal bovine serum (Thermo Fisher Scientific; 16000-036), 1 μM dexamethasone (Thermo Fisher Scientific, A15563), and 0.2% Torpedo antibiotic mix (Bioreclamation; Z990008). The plating medium was removed after 14 hours and the cells were subsequently cultured in maintenance medium: William's E medium supplemented with 4% hepatocyte maintenance supplement (Thermo Fisher Scientific; AI15564), 2% fetal bovine serum, 0.1μ M dexamethasone, 1.5% DMSO (Sigma-Aldrich, St. Louis, MO; D8418), and 0.2% Torpedo antibiotic mix. Approximately 24 hours after plating, PHH were infected with HepAD38-derived GTD virus at 500 viral genome equivalents per cell in PHH maintenance medium supplemented with 4% PEG 8000 (Promega, Madison, WI; V3011). Infections were allowed to proceed for 24 hours before removing the remaining extracellular virions by washing with maintenance medium three times. After allowing viral infection to take place for 3 days, the infected cells were harvested from the flasks by trypsinization (0.25X in PBS without Ca/Mg, 25 minutes) following a 4 minute 0.5X Versene (Life Technologies Catalog Number: 15040-066) treatment and two PBS washes. Trypsinized cells were inactivated in 10% FBS containing maintenance medium, centrifuged 6 minutes at 50 g, resuspended in hepatocyte maintenance medium, filtered through a 40 uM cell strainer, and adjusted to a density of 0.25E6 cells/ml. Infected cells were seeded on 384 well collagen coated plates (Greiner, Austria) at a density of 20,000 cells/well containing serially diluted compounds of the present disclosure or DMSO (0.5%) in a final volume of 80 μl. The assay plates were incubated for a period of 5 days and the antiviral activity of the test compounds were assayed by detecting the presence of HBV DNA in the culture supernatant using the QuantiGene™ 2.0 nucleic acid quantification kit (Affymetrix, Santa Clara, CA).

A short description of series [2]: Cytotoxicity assay in primary human hepatocytes (PHHs). The format is cell-based. The note with it: HBV-infected primary human hepatocytes, HBV-infected PHH, Cell Titer Glo, average of at least two independent experiments. As to the method: Example 107: Cytotoxicity Assay in Primary Human Hepatocytes (PHHs)
The HBV-infected primary human hepatocytes are seeded (20K cells/well in 80 uL of Media) in 384well collagen coated plates pre-spotted with compounds. After 5 days, 40 ul of cell supernatant is removed to quantify HBV DNA levels as described in Example 106. Then, 40 ul Cell Titer Glo Reagent (Promega Catalog Number: G7572) is added to the remaining cells and luminescence is measured on the EnVision microplate reader.
A general note: In ATP-based viability assays light output follows the ATP content of the culture.

The nature of series [3]: Kinetic solubility analysis. The format is physicochemical. The note with it: 1× PBS, 24.2 °C, aqueous buffer, kinetic from dmso stock; pH 7.4 PBS, 1% DMSO, 24-hour incubation at ambient temperature. The gist of the method: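 Compounds from 10 mM DMSO stocks were incubated in 0.1 N HCl or 1× PBS pH 7.4 (1.0% DMSO, 100 μM maximum theoretical) for 24 h at 24.2-27.5 °C, then vacuum filtered. Filtrates were quantified in μM by chemiluminescent nitrogen detection against a calibration curve, corrected for background nitrogen; values for adjacent ring-nitrogen compounds were raised ~25%.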

Values after ≈ are worked out from the molar mass of the structure shown.

Consider `CCCCCCOC(=O)C(C)(C)NP(=O)(CO[C@H](C)Cn1cnc2c(N)ncnc21)NC(C)(C)C(=O)OCCCCCC` [Example 1, Dihexyl 2,2′-(((((1-(6-amino-9H-purin-9-yl)propan-2-yl)oxy)methyl)phosphoryl)bis(azanediyl))(R)-bis(2-methylpropanoate)], for which the 50% cytotoxic concentration (CC50) at 5 days is 4.99 µM in series [1] and over 0.1 µM in series [2]. Moreover, in the series with HBV, a half-maximal response (EC50) required 0.00196 µM. In series [3], this compound displayed a kinetic solubility at 24 h of 0.033 mg/mL (≈ 52.7 µM).

Take `CCC(CC)COC(=O)C(C)(C)NP(=O)(CO[C@H](C)Cn1cnc2c(N)ncnc21)NC(C)(C)C(=O)OCC(CC)CC` [Example 2, Bis(2-ethylbutyl) 2,2′-(((((1-(6-amino-9H-purin-9-yl)propan-2-yl)oxy)methyl)phosphoryl)bis(azanediyl))(R)-bis(2-methylpropanoate)]: the CC50 at 5 days is 6.09 µM in series [1] and over 1 µM in series [2]. For the same compound, a half-maximal response in the series with HBV (EC50) required 0.00069 µM. For the same compound, the solubility (kinetic) at 24 h in series [3] worked out at 0.065 mg/mL (≈ 104 µM).

On to `C[C@H](Cn1cnc2c(N)ncnc21)OCP(=O)(NC(C)(C)C(=O)OCCC1CCCCC1)NC(C)(C)C(=O)OCCC1CCCCC1` [Example 14, Bis(2-cyclohexylethyl) 2,2′-(((((1-(6-amino-9H-purin-9-yl)propan-2-yl)oxy)methyl)phosphoryl)bis(azanediyl))(R)-bis(2-methylpropanoate)], for which the CC50 at 5 days in series [1] is 3.19 µM; in series [2] it was over 0.1 µM. In addition, the EC50 in the series with HBV worked out at 0.00257 µM. The compound further returned a kinetic solubility at 24 h in series [3] of 0.027 mg/mL (≈ 39.8 µM).

`C[C@H](Cn1cnc2c(N)ncnc21)OCP(=O)(NC(C)(C)C(=O)O[C@H]1CC[C@H](C(F)(F)F)CC1)NC(C)(C)C(=O)O[C@H]1CC[C@H](C(F)(F)F)CC1` [Example 21, Bis(trans-4-(trifluoromethyl)cyclohexyl) 2,2′-((((((R)-1-(6-amino-9H-purin-9-yl)propan-2-yl)oxy)methyl)phosphoryl)bis(azanediyl))bis(2-methylpropanoate)]: the CC50 at 5 days in series [1] is 4.47 µM; in series [2], over 0.1 µM. The midpoint of the response in the series with HBV, the EC50, lay at 0.00355 µM. The compound also displayed a solubility (kinetic) at 24 h in series [3] of 0.039 mg/mL (≈ 51.5 µM).

With `CCCCCCOC(=O)C(C)(C)NP(=O)(CO[C@H](C)Cn1cnc2c(NC(=O)OCc3oc(=O)oc3C)ncnc21)NC(C)(C)C(=O)OCCCCCC` [Example 33, Dihexyl 2,2′-(((((1-(6-((((5-methyl-2-oxo-1,3-dioxol-4-yl)methoxy)carbonyl)amino)-9H-purin-9-yl)propan-2-yl)oxy)methyl)phosphoryl)bis(azanediyl))(R)-bis(2-methylpropanoate)], the CC50 at 5 days in series [1] was 6.62 µM; in series [2] it was over 0.1 µM. Moreover, in the series with HBV, the EC50 turned out to be 0.00262 µM. In addition, the kinetic solubility at 24 h in series [3] amounted to 0.014 mg/mL (≈ 17.9 µM).

In the case of `CCCCCCCCOC(=O)C(C)(C)NP(=O)(CO[C@H](C)Cn1cnc2c(N)ncnc21)NC(C)(C)C(=O)OCCCCCCCC` [Example 39, Dioctyl 2,2′-(((((1-(6-amino-9H-purin-9-yl)propan-2-yl)oxy)methyl)phosphoryl)bis(azanediyl))(R)-bis(2-methylpropanoate)], the CC50 at 5 days in series [1] is 7.27 µM; in series [2], over 0.1 µM. The response with HBV was half-maximal at 0.0045 µM (EC50).

Consider `C[C@H](Cn1cnc2c(N)ncnc21)OCP(=O)(NC(C)(C)C(=O)OCC1CCCCC1)NC(C)(C)C(=O)OCC1CCCCC1` [Example 46, Bis(cyclohexylmethyl) 2,2′-(((((1-(6-amino-9H-purin-9-yl)propan-2-yl)oxy)methyl)phosphoryl)bis(azanediyl))(R)-bis(2-methylpropanoate)], for which the CC50 at 5 days in series [1] is 4.16 µM; in series [2], over 0.1 µM. In the series on HBV, the EC50 came to 0.00251 µM. In addition, the solubility (kinetic) at 24 h in series [3] was under 0.001 mg/mL.

`C[C@H](Cn1cnc2c(N)ncnc21)OCP(=O)(NC(C)(C)C(=O)OCC12CCC(CC1)CC2)NC(C)(C)C(=O)OCC12CCC(CC1)CC2` [Example 48, Bis(bicyclo[2.2.2]octan-1-ylmethyl) 2,2′-(((((1-(6-amino-9H-purin-9-yl)propan-2-yl)oxy)methyl)phosphoryl)bis(azanediyl))(R)-bis(2-methylpropanoate)]: the values for the CC50 at 5 days in series [1] and in series [2] were 3.34 µM and over 0.1 µM, respectively. In addition, the EC50 with HBV worked out at 0.00463 µM. The compound further registered a kinetic solubility at 24 h in series [3] of under 0.001 mg/mL.

On to `C[C@H](Cn1cnc2c(N)ncnc21)OCP(=O)(NC(C)(C)C(=O)OCC12CCC(CC1)C2)NC(C)(C)C(=O)OCC12CCC(CC1)C2` [Example 87, Bis(bicyclo[2.2.1]heptan-1-ylmethyl) 2,2′-(((((1-(6-amino-9H-purin-9-yl)propan-2-yl)oxy)methyl)phosphoryl)bis(azanediyl))(R)-bis(2-methylpropanoate)], for which the cytotoxic concentration (CC50) at 5 days in series [1] was 5.05 µM; in series [2], over 0.1 µM. In series [3], this compound registered a solubility (kinetic) at 24 h of under 0.001 mg/mL.

Turning to `C[C@H](Cn1cnc2c(N)ncnc21)OCP(=O)(NC(C)(C)C(=O)OCC1CCCCCC1)NC(C)(C)C(=O)OCC1CCCCCC1` [Example 89, Bis(cycloheptylmethyl) 2,2′-(((((1-(6-amino-9H-purin-9-yl)propan-2-yl)oxy)methyl)phosphoryl)bis(azanediyl))(R)-bis(2-methylpropanoate)], the results for the CC50 at 5 days in series [1] and in series [2] were 5.1 µM and over 0.1 µM, respectively. The compound further came in with an EC50 in the series on HBV of 0.00242 µM.

Regarding `C[C@H](Cn1cnc2c(N)ncnc21)OCP(=O)(NC(C)(C)C(=O)OC[C@H]1CC[C@H](C)CC1)NC(C)(C)C(=O)OC[C@H]1CC[C@H](C)CC1` [Example 91, Bis((trans-4-methylcyclohexyl)methyl) 2,2′-((((((R)-1-(6-amino-9H-purin-9-yl)propan-2-yl)oxy)methyl)phosphoryl)bis(azanediyl))bis(2-methylpropanoate)], the values for the CC50 at 5 days in series [1] and in series [2] were 4.92 µM and over 0.1 µM, respectively. A half-maximal effect in the series on HBV (EC50) was put at 0.00376 µM.

Consider `CCCCCCOC(=O)C(C)(C)NP(=O)(CO[C@H](C)Cn1cnc2c(NC(=O)OCCOC(=O)c3ccccc3)ncnc21)NC(C)(C)C(=O)OCCCCCC` [Example 94, Dihexyl 2,2′-(((((1-(6-(((2-(benzoyloxy)ethoxy)carbonyl)amino)-9H-purin-9-yl)propan-2-yl)oxy)methyl)phosphoryl)bis(azanediyl))(R)-bis(2-methylpropanoate)], for which the figures for the CC50 at 5 days in series [1] and in series [2] were 8.22 µM and over 0.1 µM, respectively. Besides, the solubility (kinetic) at 24 h in series [3] is 0.002 mg/mL (≈ 2.45 µM).

Source of the values: patent US20230303599A1, “PRODRUGS OF PHOSPHONAMIDE NUCLEOTIDE ANALOGUES AND THEIR PHARMACEUTICAL USE” (priority 2020, published 2023).
